Measured values taken from US11384099B2, “Pyrazolopyridinone compounds” (Janssen Pharmaceutica NV, priority 2017, dated 2022).
pIC50: −log10 of the molar value. Structures can show the parent of a compound that is named as a salt.

Assays:
[1] = tested on: NIH/3T3 cells transfected with control vector (MOCK); assay: NIH/3T3 mock cell proliferation assay (CTG, counter assay); format: cell-based; details: Mus musculus, NIH3T3; 72-hr incubation, CellTiter Glo; counter assay for general toxicity
Method: NIH/3T3 Mock Cell Proliferation Assay
In day 1, 90 μL of cell suspension (NIH/3T3 cells transfected with the same control vector as in the above two proliferation assays) (total 30,000 cells per well in growth medium (DMEM containing 1% Glutamax, 10% FBS and 1% Pen/Strep)) was seeded in a 96-well plate and then incubated overnight at 37° C. and 5% CO2. In day 2, 10 μL of growth medium containing 10-fold stock solution of testing compound was added into cell cultures (9 dose points with 3× serial dilution, starting with 30 μM, 0.3% DMSO final). After 72-hr incubation at 37° C. and 5% CO2, in day 5 a volume of 50 μL CellTiter Glo (CTG) reagent was added into cell-containing 96-well plate and the plate was incubated at room temperature for 10 minutes before RLUs (relative light unit) were measured on a microplate reader with luminescence detection module. The RLU value was normalized to survival % and concentration-response curve was plotted using Prism to calculate IC50 (M), pIC50 (−log IC50) and HillSlope value.

[2] = molecular target: T1, human FGFR3 V555M enzyme (cytoplasmic domain carrying V555M mutation) (Homo sapiens, UniProt P22607, V555M); assay: FGFR3 V555M mobility shift assay (enzymatic assay, Caliper); format: biochemical; details: 30 μM ATP, 45 minutes at 30° C.
T1 construct: cytoplasmic domain carrying V555M mutation, from Carna Biosciences; purchased Carna Biosciences
Method: FGFR3 V555M Mobility Shift Assay (Enzymatic Assay)
(§1) In a final reaction volume of 25 μL, 0.04 ng/μL human FGFR3 V555M enzyme (cytoplasmic domain carrying V555M mutation, from Carna Biosciences) was incubated with 30 μM ATP, 1 μM FL-peptide 30 substrate and 250 nL of testing compound (1% DMSO final) in assay buffer (100 mM HEPES pH 7.4, 10 mM MgCl2, 0.003% Brij35, 1 mM DTT). After incubation for 45 minutes at 30° C. the reaction was stopped with 10 μL of 0.5M EDTA pH 8.0, and then L of reaction mixture was transferred to reading plate and measured on Caliper EZ reader II.

[3] = molecular target: T2, human FGFR3 wild type enzyme (cytoplasmic domain) (Homo sapiens, UniProt P22607); assay: FGFR3 wild type mobility shift assay (enzymatic assay, Caliper); format: biochemical; details: 75 μM ATP, 50 minutes at 30° C.
T2 construct: human FGFR3 wild type enzyme (cytoplasmic domain, from Cama Biosciences); purchased Carna Biosciences
Method: FGFR3 Wild Type Mobility Shift Assay (Enzymatic Assay)
as §1, with “FGFR3 wild type” for “FGFR3 V555M”, “(cytoplasmic domain,” for “(cytoplasmic domain carrying V555M mutation,”, “from Cama” for “from Carna”, “with 75” for “with 30”, “for 50” for “for 45”

T1 sequence (P22607 397-806 V555M limits assumed): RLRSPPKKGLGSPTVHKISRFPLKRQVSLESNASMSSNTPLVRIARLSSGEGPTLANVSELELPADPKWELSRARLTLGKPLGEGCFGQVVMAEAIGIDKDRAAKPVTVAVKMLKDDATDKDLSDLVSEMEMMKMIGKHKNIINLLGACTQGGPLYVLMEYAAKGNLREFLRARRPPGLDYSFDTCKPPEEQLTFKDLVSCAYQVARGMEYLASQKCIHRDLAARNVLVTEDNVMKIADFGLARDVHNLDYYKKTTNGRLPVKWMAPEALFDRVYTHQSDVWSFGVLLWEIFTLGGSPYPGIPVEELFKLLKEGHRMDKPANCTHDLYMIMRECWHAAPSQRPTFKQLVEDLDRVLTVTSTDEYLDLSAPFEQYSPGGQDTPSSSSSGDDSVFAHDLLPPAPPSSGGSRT
T2 sequence (P22607 397-806 limits assumed): as the sequence (P22607 397-806 V555M limits assumed) above, with M159V counted along it

| pIC50 [2] | pIC50 [3] | Structure (SMILES) | pIC50 [1] |
| --- | --- | --- | --- |
| 8.37 | 7.75 | COCC(Nc1c(-c2nc3ccc(OC)cc3[nH]2)c(=O)[nH]c2cn(C)nc12)c1ncccn1 (single isomer, unassigned) [Compound 12, (S*)-7-((2-methoxy-1-(pyrimidin-2-yl)ethyl)amino)-6-(6-methoxy-1H-benzo[d]imidazol-2-yl)-2-methyl-2H-pyrazolo[4,3-b]pyridin-5 (4H)-one] | 5.82 |
| 9.02 | 8.31 | CCC(Nc1c(-c2nc3ccc(OC)cc3[nH]2)c(=O)[nH]c2cn(C)nc12)c1ncccn1 (single isomer, unassigned) [Compound 17, (R*)-6-(6-Methoxy-1H-benzo[d]imidazol-2-yl)-2-methyl-7-((1-(pyrimidin-2-yl)propyl)-amino)-2H-pyrazolo[4,3-b]pyridin-5 (4H)-one] | 6.02 |
| 8.77 | 8.07 | COc1cc2[nH]c(-c3c(NC(c4ncccn4)C(C)C)c4nn(C)cc4[nH]c3=O)nc2cn1 (single isomer, unassigned) [Compound 18, (S*)-6-(6-methoxy-1H-imidazo[4,5-c]pyridin-2-yl)-2-methyl-7-((2-methyl-1-(pyrimidin-2-yl)propyl)amino)-2H-pyrazolo[4,3-b]pyridin-5 (4H)-one] | 5.51 |
| 9.40 | 8.45 | CC(C)[C@H](Nc1c(-c2nc3ncc(N(C)C)cc3[nH]2)c(=O)[nH]c2cn(C)nc12)c1ncccn1 (single isomer, unassigned) [Compound 23, (S*)-6-(6-(dimethylamino)-1H-imidazo[4,5-b]pyridin-2-yl)-2-methyl-7-((2-methyl-1-(pyrimidin-2-yl)propyl)amino)-2H-pyrazolo[4,3-b]pyridin-5 (4H)-one 0.14 formate] | 6.03 |
| – | – | COc1cc2nc(-c3c(N[C@H](c4ncccn4)C(C)C)c4nn(C)cc4[nH]c3=O)[nH]c2cc1OC (single isomer, unassigned) [Compound 27, (S*)-6-(5,6-dimethoxy-H-benzo[d]imidazol-2-yl)-2-methyl-7-((2-methyl-1-(pyrimidin-2-yl)propyl)amino)-2H-pyrazolo[4,3-b]pyridin-5 (4H)-one] | 6.14 |
| 9.30 | 8.65 | COCCOc1cc2[nH]c(-c3c(NC(c4ncccn4)C(C)C)c4nn(C)cc4[nH]c3=O)nc2cc1OC (single isomer, unassigned) [Compound 36, (S*)-6-(5-methoxy-6-(2-methoxyethoxy)-1H-benzo[d]imidazol-2-yl)-2-methyl-7-((2-methyl-1-(pyrimidin-2-yl)propyl)amino)-2H-pyrazolo[4,3-b]pyridin-5 (4H)-one] | 6.12 |
| 9.13 | 8.23 | COc1cnc2nc(-c3c(NC(c4ncccn4)C(C)C)c4nn(C)cc4[nH]c3=O)[nH]c2c1 (single isomer, unassigned) [Compound 40, (S*)-6-(6-methoxy-1H-imidazo[4,5-b]pyridin-2-yl)-2-methyl-7-((2-methyl-1-(pyrimidin-2-yl)propyl)amino)-2,4-dihydro-5H-pyrazolo[4,3-b]pyridin-5-one] | 5.76 |
| 8.93 | 8.51 | CCC(Nc1c(-c2nc3cc(OC)c(OC)cc3[nH]2)c(=O)[nH]c2cn(CC)nc12)c1ncccn1 (single isomer, unassigned) [Compound 44, (S*)-6-(5,6-dimethoxy-1H-benzo[d]imidazol-2-yl)-2-ethyl-7-((1-(pyrimidin-2-yl)propyl)-amino)-2H-pyrazolo[4,3-b]pyridin-5 (4H)-one] | 5.64 |
| 9.25 | 8.61 | COc1cc2nc(-c3c(NC(c4ncccn4)C4CC4)c4nn(C)cc4[nH]c3=O)[nH]c2cc1OC (single isomer, unassigned) [Compound 46, (S*)-7-((cyclopropyl(pyrimidin-2-yl)methyl)amino)-6-(5,6-dimethoxy-1H-benzo[d]-imidazol-2-yl)-2-methyl-2H-pyrazolo[4,3-b]pyridin-5 (4H)-one] | 6.17 |
| 9.10 | 8.54 | COc1cc(F)c2nc(-c3c(N[C@@H](C)c4ncccn4)c4nn(C)cc4[nH]c3=O)[nH]c2c1 [Compound 2, (S)-6-(4-fluoro-6-methoxy-1H-benzo[d]imidazol-2-yl)-2-methyl-7-((1-(pyrimidin-2-yl)-ethyl)amino)-2H-pyrazolo[4,3-b]pyridin-5 (4H)-one] | 5.62 |
| 9.44 | 8.78 | COc1cnc2nc(-c3c(N[C@@H](C)c4ncccn4)c4nn(C)cc4[nH]c3=O)[nH]c2c1 [Compound 3, (S)-6-(6-methoxy-1H-imidazo[4,5-b]pyridin-2-yl)-2-methyl-7-((1-(pyrimidin-2-yl)-ethyl)amino)-2H-pyrazolo[4,3-b]pyridin-5 (4H)-one] | 6.11 |
| 9.00 | 8.47 | CCn1cc2[nH]c(=O)c(-c3nc4ccc(OC)cc4[nH]3)c(N[C@@H](C)c3ncccn3)c2n1 [Compound 4, (S)-2-ethyl-6-(6-methoxy-1H-benzo[d]imidazol-2-yl)-7-((1-(pyrimidin-2-yl)ethyl)amino)-2H-pyrazolo[4,3-b]pyridin-5 (4H)-one] | 6.13 |
| 9.17 | 8.74 | CCn1cc2[nH]c(=O)c(-c3nc4cc(OC)c(OC)cc4[nH]3)c(N[C@@H](C)c3ncccn3)c2n1 [Compound 6, (S)-6-(5,6-Dimethoxy-1H-benzo[d]imidazol-2-yl)-2-ethyl-7-((1-(pyrimidin-2-yl)ethyl)-amino)-2H-pyrazolo[4,3-b]pyridin-5 (4H)-one] | 6.10 |
| 9.43 | 8.94 | CCOc1cc2[nH]c(-c3c(N[C@@H](C)c4ncccn4)c4nn(CC)cc4[nH]c3=O)nc2cc1OC [Compound 8, (S)-6-(6-ethoxy-5-methoxy-1H-benzo[d]imidazol-2-yl)-2-ethyl-7-((1-(pyrimidin-2-yl)-ethyl)amino)-2H-pyrazolo[4,3-b]pyridin-5 (4H)-one] | 6.12 |
| 9.13 | 8.44 | CC[C@H](Nc1c(-c2nc3cnc(N(C)C)cc3[nH]2)c(=O)[nH]c2cn(C)nc12)c1ncccn1 [Compound 22, (S)-6-(6-(dimethylamino)-1H-imidazo[4,5-c]pyridin-2-yl)-2-methyl-7-((1-(pyrimidin-2-yl)propyl)amino)-2H-pyrazolo[4,3-b]pyridin-5 (4H)-one] | 5.90 |
| 9.29 | 8.72 | COc1cc(OC)c2nc(-c3c(N[C@@H](C)c4ncccn4)c4nn(C)cc4[nH]c3=O)[nH]c2c1 [Compound 29, (S)-6-(4,6-Dimethoxy-1H-benzo[d]imidazol-2-yl)-2-methyl-7-((1-(pyrimidin-2-yl)ethyl)-amino)-2H-pyrazolo[4,3-b]pyridin-5 (4H)-one] | 6.09 |
| 9.38 | 8.95 | COc1cc2[nH]c(-c3c(N[C@@H](C)c4ncccn4)c4nn(C)cc4[nH]c3=O)nc2cn1 [Compound 30, (S)-6-(6-methoxy-1H-imidazo[4,5-c]pyridin-2-yl)-2-methyl-7-((1-(pyrimidin-2-yl)ethyl)-amino)-2H-pyrazolo[4,3-b]pyridin-5 (4H)-one] | 5.92 |
| 8.69 | 8.26 | CCn1cc2[nH]c(=O)c(-c3nc4c(OC)cccc4[nH]3)c(N[C@@H](C)c3ncccn3)c2n1 [Compound 32, (S)-2-ethyl-6-(4-methoxy-1H-benzo[d]imidazol-2-yl)-7-((1-(pyrimidin-2-yl)ethyl)amino)-2H-pyrazolo[4,3-b]pyridin-5 (4H)-one] | 5.83 |
| 8.95 | 8.42 | CCn1cc2[nH]c(=O)c(-c3nc4c(F)c(OC)c(OC)cc4[nH]3)c(N[C@@H](C)c3ncccn3)c2n1 [Compound 41, (S)-2-ethyl-6-(4-fluoro-5,6-dimethoxy-1H-benzo[d]imidazol-2-yl)-7-((1-(pyrimidin-2-yl)-ethyl)amino)-2H-pyrazolo[4,3-b]pyridin-5 (4H)-one] | 5.64 |
